Measured values: article PMC11574108, “4-Furanylvinylquinoline derivative as a new scaffold for the design of oxidative stress initiator and glucose transporter inhibitor drugs” (Scientific Reports, 2024)

How the values were obtained:
Assay type in all cases: cell-based, human
K562 = assay: Monolayer antiproliferative MTS assay; conditions: 2D model; for IC50: MTS, 72-h incubation
Text: (§1) The human colon carcinoma cell line HCT 116 with wild-type p53 (p53^+/+) and the human glioblastoma cell line U-251 were obtained from ATCC, while the HCT 116 with a p53 deletion (p53^−/−) was kindly provided by Prof. M. Rusin from the Maria Sklodowska-Curie Memorial Cancer Center and Institute of Oncology in Gliwice, Poland. The human chronic myelogenous leukaemia cell line K562 and the normal human cell dermal fibroblast cell line NHDF were purchased from Sigma-Aldrich and PromoCell, respectively. Both the HCT 116 and U-251 cell lines were cultured in Dulbecco’s modified Eagle’s medium (DMEM) supplemented with 10% inactivated foetal bovine serum (FBS). The DMEM for the NHDF contained 15% non-inactivated FBS. K562 cells were cultured in RPMI medium completed by 10% inactivated FBS. Additionally, the media were supplemented with antibiotics (streptomycin and penicillin – 1% v/v; Sigma-Aldrich). The cell culture was conducted in 75 cm^2 flasks (Nunc) under standard conditions (37 °C, 5% CO2 humidified atmosphere). Furthermore, the cell lines were frequently tested for mycoplasma using the qRT-PCR technique with specific Mycoplasma primers to confirm the lack of contamination.
(§2) The cells were seeded in 96-well plates (Nunc) with 5,000 or 4,000 cells per well for the cancer cells and NHDF, respectively, and incubated under standard conditions at 37 °C overnight. The culture media were then changed for freshly prepared solutions of the tested compounds in various concentrations. After 72-h incubation the antiproliferative assay was carried out as follows: the solutions of the compounds were changed in each well to 100 µL DMEM without phenol red and 20 µL of CellTiter 96 AQueous One Solution-MTS (Promega). The plates were incubated for 1 h at 37 °C, and the absorbance was then measured at 490 nm using a multi-plate reader (Synergy 4, BioTek). The experiment for each sample was repeated at least three times. The results are presented as the half-maximal inhibitory concentration (IC50) values, which were estimated in comparison to untreated cells (control) and calculated using GraphPad Prism v.8.0 (USA).
(§3) However, the antiproliferative activity of derivative 13 with furan a ring was surprising. […] For this purpose, we selected two pancreatic cancer cell lines: AsPC-1, which is characterised by a deletion of the p53 protein[20] and PANC-1, which carries an R273H mutation. This mutation also occurred in the glioblastoma U-251 cell line[22],[23]. An additional non-adherent line that carries the TP53 mutation that results in the absence of p53 is the K562 leukemic cell line[24]. […] Moreover, 13 was selective toward […], as indicated by its SI values (3.35–9.41). Among all of the tested cell lines, the highest activity of the compound was found against the HCT 116 cells with the wild-type p53 protein (0.069 µM). […] The p53 protein also interacts with the metabolic pathways that are associated with glucose transport[25] as well as small molecules. In light of the above-mentioned facts, we also determined the cytotoxicity of the GLUT inhibitor BAY-876, which is based on a quinoline scaffold. […] Furthermore, BAY-876 was also toxic to normal cells.

U-251 [1] = assay: Monolayer antiproliferative MTS assay; conditions: 2D monolayer; for IC50: MTS, 72-h incubation
Text: as §1, §2, §3

HCT 116 p53+/+ = assay: Intracellular ROS level measurement (CellROX Green); conditions: 1 µM, 24 h
Experimental: (§4) The cells (9,000 per well) were seeded in 96-well plates and treated with at freshly prepared 1 µM solution of 13 for 3, 6, 9, 12, and 24 h. The ROS levels were measured immediately according to the CellROX Green Reagent procedure. Additionally, the number of cells in each well during measurement was estimated using Hoechst 33,342 (Molecular Probes™). Briefly, after treatment the medium was removed and […] mixture of CellROX Green Reagent ([…]) and Hoechst 33,342 ([…]) was added to each well. The plates were incubated for 30 min at 37 °C in the dark, and the fluorescence of samples was then measured using a multiplate reader (Synergy 4, Bio Tek). Readings were performed at 485 nm excitation and 520 nm emission, as well as at 345 nm excitation and 485 nm emission for the CellROX Green Reagent and Hoechst 33,342, respectively. ROS levels were calculated as the percentage relative to the untreated cell levels (control). The experiments were carried out three times.
(§5) To determine the ROS level, the fluorescent CellROX Green Reagent was used, being measured by a spectroscopic multi-plate reader. […] The ROS level was several percent higher compared to the control after only 3 h. After 24 h the amount of ROS increased by as much as 50% relative to the untreated cells. Similar observations were made in the case of the HCT 116 p53^+/+ cells. However, the generation of ROS was less pronounced, especially at the first time points. Nevertheless, after 24 h, the level of ROS was about 40% higher. […] The highest (20% growth) occurred after 9 h and 24 h. […] The intracellular ROS levels are rapidly regulated by activated p53, which initially decreases and then subsequently increases them[42]. The weaker response toward ROS generation in these cells might have been caused by the fact that U-251 cells are resistant to exposure to oxidative stress. […] Additionally, cancer cells with a p53 mutation have a higher level of ROS than those with the wild type. Some p53 mutants can gain oncogenic features that are described as “gain-of-function” (GOF), among them being U-251 cells. […]

HCT 116 p53-/- = assay: as above; conditions: 1 µM, 24 h
Experimental: as §4, §5

U-251 [2] = assay: as above; conditions: 1 µM, after 9 h and 24 h
Experimental: as §4, §5

IC50 (K562): 93 ± 9 nM
IC50 (K562; Homo sapiens, K562, 72 h): < 100 nM
IC50 (U-251 [1]): 87 ± 7 nM
IC50 (U-251 [1]; Homo sapiens, U-251, 72 h): < 100 nM
Compound: O=[N+]([O-])c1ccc(/C=C/c2ccnc3ccccc23)o1 [Compound 13]
SI (selectivity index) K562 (K562; relative to NHDF): 6.98
SI (selectivity index) U-251 (U-251 [1]; relative to NHDF): 7.46
ROS level increase relative to untreated cells (HCT 116 p53+/+): about 40%
ROS level increase relative to untreated cells (HCT 116 p53-/-): 50%
ROS level increase relative to untreated cells (U-251 [2]): 20%
